According to US4356183A, “Antihypertensive 4-thiazolidinecarboxylic acids (pyridyl derivatives)” (Santen Pharmaceutical Co., Ltd., priority 1978, dated 1982):

Test system: contractile response to bradykinin (isolated guinea pig ileum)
Experiment: Augmentation of contractile response of isolated guinea pig ileum to bradykinin
Format: cell-based
Conditions: Cavia porcellus, bradykinin 0.005 μg/ml; compound added 5 min before; 30° C.; read-out: Bradykinin AC50 (50% augmentation of bradykinin activity inducing the contraction of guinea pig ileum)

SMILES	AC50
C[C@H](CS)C(=O)N1C(c2ccccc2O)SC[C@H]1C(=O)O (some centres unmarked) [Compound 50]	0.7 nM
COc1ccc(C2SC[C@@H](C(=O)O)N2C(=O)[C@H](C)CS)c(O)c1 (some centres unmarked) [Compound 77]	1.3 nM
